Experimental data published in ChEMBL document CHEMBL4138123, “Design, synthesis and biological evaluation of novel pyrazolochalcones as potential modulators of PI3K/Akt/mTOR pathway and inducers of apoptosis in breast cancer cells” (Eur J Med Chem, 2017).

Experiments:
Type in all cases: functional
[1] = system: HOP-62; test: Cytotoxicity against human HOP62 cells assessed as cell growth at 100 uM after 48 hrs by sulforhodamine B assay relative to control; conditions: HOP-62, 48 h, read-out: Activity
[2] = system: NCI-H322M; test: Cytotoxicity against human NCI-H322M cells assessed as cell growth at 10 uM after 48 hrs by sulforhodamine B assay relative to control; conditions: read-out: Activity
[3] = system: RXF 393; test: Cytotoxicity against human RXF393 cells assessed as cell growth at 0.1 uM after 48 hrs by sulforhodamine B assay relative to control; conditions: RXF 393, 48 h, read-out: Activity
[4] = system: NCI-H226; test: Cytotoxicity against human NCI-H226 cells assessed as growth inhibition after 48 hrs by sulforhodamine B assay; conditions: NCI-H226, 48 h
[5] = system: IGROV-1; test: Cytotoxicity against human IGROV1 cells assessed as cell growth at 0.01 uM after 48 hrs by sulforhodamine B assay relative to control; conditions: IGROV-1, 48 h, read-out: Activity
[6] = system: UACC-62; test: Cytotoxicity against human UACC62 cells assessed as cell growth at 10 uM after 48 hrs by sulforhodamine B assay relative to control; conditions: UACC-62, 48 h, read-out: Activity
[7] = system: SNB-19; test: Cytotoxicity against human SNB19 cells assessed as cell growth at 0.1 uM after 48 hrs by sulforhodamine B assay relative to control; conditions: SNB-19, 48 h, read-out: Activity
[8] = system: Malme-3M; test: Cytotoxicity against human MALME-3M cells assessed as cell growth at 0.01 uM after 48 hrs by sulforhodamine B assay relative to control; conditions: read-out: Activity
[9] = system: SF-539; test: Cytotoxicity against human SF539 cells assessed as cell growth at 10 uM after 48 hrs by sulforhodamine B assay relative to control; conditions: SF-539, 48 h, read-out: Activity
[10] = system: HCT-15; test: Cytotoxicity against human HCT15 cells assessed as cell growth at 0.1 uM after 48 hrs by sulforhodamine B assay relative to control; conditions: HCT-15, 48 h, read-out: Activity
[11] = system: UACC-62; test: Cytotoxicity against human UACC62 cells assessed as growth inhibition after 48 hrs by sulforhodamine B assay; conditions: UACC-62, 48 h
[12] = system: NCI-H322M; test: Cytotoxicity against human NCI-H322M cells assessed as cell growth at 100 uM after 48 hrs by sulforhodamine B assay relative to control; conditions: read-out: Activity
[13] = system: SK-OV-3; test: Cytotoxicity against human SKOV3 cells assessed as cell growth at 0.01 uM after 48 hrs by sulforhodamine B assay relative to control; conditions: SK-OV-3, 48 h, read-out: Activity
[14] = system: ACHN; test: Cytotoxicity against human ACHN cells assessed as cell growth at 10 uM after 48 hrs by sulforhodamine B assay relative to control; conditions: read-out: Activity
[15] = system: CCRF-CEM; test: Cytotoxicity against human CCRF-CEM cells assessed as growth inhibition after 48 hrs by sulforhodamine B assay
[16] = system: RXF 393; test: Cytotoxicity against human RXF393 cells assessed as cell growth at 100 uM after 48 hrs by sulforhodamine B assay relative to control; conditions: RXF 393, 48 h, read-out: Activity
[17] = system: NCI-H522; test: Cytotoxicity against human NCI-H522 cells assessed as cell growth at 1 uM after 48 hrs by sulforhodamine B assay relative to control; conditions: NCI-H522, 48 h, read-out: Activity
[18] = system: Malme-3M; test: Cytotoxicity against human MALME-3M cells assessed as cell growth at 10 uM after 48 hrs by sulforhodamine B assay relative to control; conditions: read-out: Activity
[19] = system: OVCAR-3; test: Cytotoxicity against human OVCAR3 cells assessed as cell growth at 100 uM after 48 hrs by sulforhodamine B assay relative to control; conditions: OVCAR-3, 48 h, read-out: Activity
[20] = system: RXF 393; test: Cytotoxicity against human RXF393 cells assessed as growth inhibition after 48 hrs by sulforhodamine B assay; conditions: RXF 393, 48 h
[21] = system: MDA-MB-231; test: Cytotoxicity against human MDA-MB-231 cells assessed as growth inhibition after 48 hrs by sulforhodamine B assay; conditions: MDA-MB-231, 48 h
[22] = system: NCI-H522; test: Cytotoxicity against human NCI-H522 cells assessed as cell growth at 10 uM after 48 hrs by sulforhodamine B assay relative to control; conditions: NCI-H522, 48 h, read-out: Activity
[23] = system: HCT-116; test: Cytotoxicity against human HCT116 cells assessed as cell growth at 10 uM after 48 hrs by sulforhodamine B assay relative to control; conditions: HCT-116, 48 h, read-out: Activity
[24] = system: HCT-116; test: Cytotoxicity against human HCT116 cells assessed as cell growth at 0.1 uM after 48 hrs by sulforhodamine B assay relative to control; conditions: HCT-116, 48 h, read-out: Activity
[25] = system: CCRF-CEM; test: Cytotoxicity against human CCRF-CEM cells assessed as cell growth at 0.01 uM after 48 hrs by sulforhodamine B assay relative to control; conditions: read-out: Activity
[26] = system: BT-549; test: Cytotoxicity against human BT549 cells assessed as growth inhibition after 48 hrs by sulforhodamine B assay; conditions: BT-549, 48 h
[27] = system: SK-MEL-2; test: Cytotoxicity against human SK-MEL-2 cells assessed as growth inhibition after 48 hrs by sulforhodamine B assay; conditions: SK-MEL-2, 48 h
[28] = system: CCRF-CEM; test: Cytotoxicity against human CCRF-CEM cells assessed as cell growth at 0.1 uM after 48 hrs by sulforhodamine B assay relative to control; conditions: read-out: Activity
[29] = system: OVCAR-4; test: Cytotoxicity against human OVCAR4 cells assessed as growth inhibition after 48 hrs by sulforhodamine B assay; conditions: OVCAR-4, 48 h
[30] = system: SF-539; test: Cytotoxicity against human SF539 cells assessed as growth inhibition after 48 hrs by sulforhodamine B assay; conditions: SF-539, 48 h
[31] = system: SK-MEL-5; test: Cytotoxicity against human SK-MEL-5 cells assessed as cell growth at 0.01 uM after 48 hrs by sulforhodamine B assay relative to control; conditions: SK-MEL-5, 48 h, read-out: Activity
[32] = system: K562; test: Cytotoxicity against human K562 cells assessed as growth inhibition after 48 hrs by sulforhodamine B assay; conditions: K562, 48 h
[33] = system: UACC-257; test: Cytotoxicity against human UACC257 cells assessed as cell growth at 0.1 uM after 48 hrs by sulforhodamine B assay relative to control; conditions: UACC-257, 48 h, read-out: Activity
[34] = system: ACHN; test: Cytotoxicity against human ACHN cells assessed as cell growth at 1 uM after 48 hrs by sulforhodamine B assay relative to control; conditions: read-out: Activity
[35] = system: TK-10; test: Cytotoxicity against human TK10 cells assessed as cell growth at 0.01 uM after 48 hrs by sulforhodamine B assay relative to control; conditions: TK-10, 48 h, read-out: Activity

COc1cc(-c2cc(/C=C/C(=O)c3ccc(N)cc3)[nH]n2)cc(OC)c1OC
growth at 100 µM [1]: -98%
growth at 10 µM [2]: -32%
growth at 0.1 µM [3]: 91%
GI50 [4]: 1.71 µM
LC50 (concentration killing 50% of cells) [4]: 7.18 µM
TGI [4]: 3.51 µM
growth at 0.01 µM [5]: 107%
growth at 10 µM [6]: -69%
growth at 0.1 µM [7]: 94%
growth at 0.01 µM [8]: 98%
growth at 10 µM [9]: -93%
growth at 0.1 µM [10]: 94%
GI50 [11]: 1.7 µM
LC50 [11]: 7.51 µM
TGI [11]: 3.58 µM
growth at 100 µM [12]: -89%
growth at 0.01 µM [13]: 82%
growth at 10 µM [14]: -61%
GI50 [15]: 0.55 µM
LC50 (concentration killing 50% of cells) [15]: > 100 µM
TGI [15]: 4.17 µM
growth at 100 µM [16]: -86%
growth at 1 µM [17]: 77%
growth at 10 µM [18]: -45%
growth at 100 µM [19]: -93%
GI50 [20]: 1.35 µM
LC50 (concentration killing 50% of cells) [20]: 7.79 µM
TGI [20]: 3.24 µM
GI50 [21]: 2.06 µM
LC50 [21]: 47.5 µM
TGI [21]: 12.2 µM
growth at 10 µM [22]: -51%
growth at 10 µM [23]: -78%
growth at 0.1 µM [24]: 97%
growth at 0.01 µM [25]: 96%
GI50 [26]: 1.38 µM
LC50 (concentration killing 50% of cells) [26]: 5.76 µM
TGI [26]: 2.82 µM
GI50 [27]: 2.85 µM
LC50 (concentration killing 50% of cells) [27]: 31.9 µM
TGI [27]: 7.53 µM
growth at 0.1 µM [28]: 91%
GI50 [29]: 1.4 µM
LC50 [29]: 23.7 µM
TGI [29]: 5.44 µM
GI50 [30]: 1.3 µM
LC50 (concentration killing 50% of cells) [30]: 5.42 µM
TGI [30]: 2.66 µM
growth at 0.01 µM [31]: 95%
GI50 [32]: 0.72 µM
LC50 (concentration killing 50% of cells) [32]: > 100 µM
TGI [32]: 23.6 µM
growth at 0.1 µM [33]: 93%
growth at 1 µM [34]: 79%
growth at 0.01 µM [35]: 102%
